Laboratory results: US20250115597A1, “TYK2 INHIBITORS AND COMPOSITIONS AND METHODS THEREOF” (LYNK PHARMACEUTICALS CO. LTD., priority 2021, published 2025)
Like-named read-outs stand apart in the source and are kept apart here.

Experiments:
[1] = target: T1, Ba/F3-FL-TYK2-P760L cells (Homo sapiens, UniProt P29597, P760L, cells depend on it); assay: Anti-proliferative assay, Ba/F3-FL-TYK2-P760L cells (Cell-Titer Glo); format: cell-based; details: 72 h, read-out: BaF3-FL-T2P760L IC50
T1 construct: BaF3-FL-T2P760L (nM)
In short: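 Compound exposure ran 72 h at 37 °C in 5% CO2 across nine 3-fold concentrations from a 20 μM top dose, added 24 h after seeding 2000 cells/well.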

[2] = target: T2, TYK2-JH2 domain (Homo sapiens, UniProt P29597); assay: Binding activity test for JH2 domain of TYK2 (Tb-antibody/tracer FRET)
T2 construct: IC50 on JH2 domain activity (nM)
Method: Binding Activity Test for […] Domain of JAK1 and TYK2 The compounds are prepared in DMSO for 200× top dose, then serial dilute it with 27-fold for 3 more points. Add 8 μL/well in echo source plate, echo will add 75 nL/well with 3-fold serial dilution for 11 points in assay plate. 75 nL DMSO for high control and low control. […] For low control, add 5 μL/well assay buffer. And then spin down at 1000 rpm and centrifuge for 30 seconds. After enzyme system prepared, add 5 μL of Tb-antibody solution into each wells of assay plate. Spin down at 1000 rpm and centrifuge for 30 sec. After Tb-antibody added, also add 5 μL of tracer into the assay plate. Spin down at 1000 rpm and centrifuge for 30 sec. Incubate for 60 mins at 25° C. firstly and then continue to incubate the plate at 4° C. overnight. Read by envision in FRET mode. The Luminescence value was recorded by a multi-label reader Envision (PerkinElmer).

[3] = Microsomal metabolic stability assay; format: in vitro ADME; details: pH 7.4, 0.5 mg/mL protein, 1 μM compound
In short: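 Parent loss was tracked by LC/MS/MS at 0, 5, 15, 30 and 45 min, with half-life derived from the ln(% remaining)–time slope. Incubation at 37 °C, pH 7.4 phosphate/EDTA buffer: 0.5 mg/mL microsomes, 1 μM compound, NADPH-regenerated (2 mM).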

[4] = dog liver microsomes, read-out: Dog LM Clint
[5] = dog liver microsomes, read-out: Dog LM T½
[6] = human liver microsomes, read-out: Human LM Clint
[7] = human liver microsomes, read-out: Human LM T½
[8] = rat liver microsomes, read-out: Rat LM Clint
[9] = rat liver microsomes, read-out: Rat LM T½

T1 sequence (P29597 whole entry P760L): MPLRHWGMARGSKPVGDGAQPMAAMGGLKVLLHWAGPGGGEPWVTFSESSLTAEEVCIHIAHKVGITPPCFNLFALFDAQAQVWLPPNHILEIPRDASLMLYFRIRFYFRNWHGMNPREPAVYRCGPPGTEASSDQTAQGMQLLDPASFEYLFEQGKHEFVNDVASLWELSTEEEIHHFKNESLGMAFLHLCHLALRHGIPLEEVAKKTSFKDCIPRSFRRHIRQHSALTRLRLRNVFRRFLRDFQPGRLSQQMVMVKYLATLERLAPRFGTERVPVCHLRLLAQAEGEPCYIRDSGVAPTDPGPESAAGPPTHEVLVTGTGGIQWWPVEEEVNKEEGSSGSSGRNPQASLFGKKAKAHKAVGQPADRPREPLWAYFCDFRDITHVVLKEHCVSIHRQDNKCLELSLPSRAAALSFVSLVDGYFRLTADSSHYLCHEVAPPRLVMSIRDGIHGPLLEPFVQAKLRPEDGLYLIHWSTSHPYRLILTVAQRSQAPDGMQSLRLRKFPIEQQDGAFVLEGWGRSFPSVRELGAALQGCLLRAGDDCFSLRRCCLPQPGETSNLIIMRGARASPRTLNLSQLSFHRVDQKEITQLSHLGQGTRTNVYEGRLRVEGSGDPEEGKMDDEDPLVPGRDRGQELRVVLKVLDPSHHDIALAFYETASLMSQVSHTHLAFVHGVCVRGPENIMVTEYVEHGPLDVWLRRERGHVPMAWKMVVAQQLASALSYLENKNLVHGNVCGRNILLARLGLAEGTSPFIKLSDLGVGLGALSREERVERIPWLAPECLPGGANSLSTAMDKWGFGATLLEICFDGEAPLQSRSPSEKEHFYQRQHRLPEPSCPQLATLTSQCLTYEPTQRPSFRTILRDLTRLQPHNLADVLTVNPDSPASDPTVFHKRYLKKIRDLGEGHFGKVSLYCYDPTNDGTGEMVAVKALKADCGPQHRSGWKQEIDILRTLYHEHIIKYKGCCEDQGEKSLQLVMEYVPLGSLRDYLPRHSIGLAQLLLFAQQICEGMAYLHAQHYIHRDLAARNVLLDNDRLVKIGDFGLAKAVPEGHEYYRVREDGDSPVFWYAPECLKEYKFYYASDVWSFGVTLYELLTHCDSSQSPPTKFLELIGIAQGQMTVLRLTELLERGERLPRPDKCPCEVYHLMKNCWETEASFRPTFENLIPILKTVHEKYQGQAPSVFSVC
T2 sequence (P29597 589-875 limits assumed): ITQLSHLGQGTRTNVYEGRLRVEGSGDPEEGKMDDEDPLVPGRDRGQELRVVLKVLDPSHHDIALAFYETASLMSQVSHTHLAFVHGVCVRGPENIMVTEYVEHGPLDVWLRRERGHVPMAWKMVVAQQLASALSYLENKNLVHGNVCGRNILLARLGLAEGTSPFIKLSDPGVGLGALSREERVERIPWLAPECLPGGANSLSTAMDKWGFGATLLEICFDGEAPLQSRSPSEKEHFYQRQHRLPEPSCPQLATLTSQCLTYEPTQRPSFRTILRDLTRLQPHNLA

Row | SMILES | GI50 [1] [nM] | IC50 [2] [nM] | microsomal CLint at 1 μM [3, 4] [µL/min/mg] | half-life at 1 μM [3, 5] [min] | microsomal CLint at 1 μM [3, 6] [µL/min/mg] | half-life at 1 μM [3, 7] [min] | microsomal CLint at 1 μM [3, 8] [µL/min/mg] | half-life at 1 μM [3, 9] [min]
1 | [2H]C([2H])([2H])NC(=O)c1cnc(NC(=O)C2CC2)cc1Nc1cn(C)c2ccn(C(C)C(F)(F)F)c(=O)c12 (single isomer, unassigned) [Example 190A, (R*)-6-(Cyclopropanecarboxamido)-N-(methyl-d3)-4-((1-methyl-4-oxo-5-(1,1,1-trifluoropropan-2-yl)-4,5-dihydro-1H-pyrrolo[3,2-c]pyridin-3-yl)amino)nicotinamide] | 113 | 0.622 | – | – | – | – | – | –
2 | [2H]C([2H])([2H])NC(=O)c1cnc(NC(=O)C2CC2)cc1Nc1ccn2cnc(CC)c2c1OC [Example 57, 6-(Cyclopropanecarboxamido)-4-((1-ethyl-8-methoxyimidazo[1,5-a]pyridin-7-yl)amino)-N-(methyl-d3)nicotinamide] | > 5000 | 5.21 | – | – | – | – | – | –
3 | COC(=O)c1cnc(NC(=O)C2CC2)cc1Nc1cn(C)c2ccn(C)c(=O)c12 [Example 116, Methyl 6-(cyclopropanecarboxamido)-4-((1,5-dimethyl-4-oxo-4,5-dihydro-1H-pyrrolo[3,2-c]pyridin-3-yl)amino)nicotinate] | 102 | 3.35 | – | – | – | – | – | –
4 | [2H]C([2H])([2H])NC(=O)c1cnc(NC(=O)C2CC2)nc1Nc1ccc2cnn(CC)c2c1OC [Example 135, 2-(Cyclopropanecarboxamido)-4-((1-ethyl-7-methoxy-1H-indazol-6-yl)amino)-N-(methyl-d3)pyrimidine-5-carboxamide] | 128 | 1.46 | – | – | – | – | – | –
5 | [2H]C([2H])([2H])NC(=O)c1nnc(NC(=O)C2CC2)cc1Nc1ccc2cnn(CC)c2c1OC [Example 144, 6-(Cyclopropanecarboxamido)-4-((1-ethyl-7-methoxy-1H-indazol-6-yl)amino)-N-(methyl-d3)pyridazine-3-carboxamide] | 344 | 1.29 | – | – | – | – | – | –
6 | CCn1ncc2ccc(Nc3cc(NC(=O)C4CC4)ncc3C(=O)OC)c(OC(F)(F)F)c21 [Example 148, Methyl 6-(cyclopropanecarboxamido)-4-((1-ethyl-7-(trifluoromethoxy)-1H-indazol-6-yl)amino)nicotinate] | 242 | > 298 | – | – | – | – | – | –
7 | CCc1nn(C)c2ccc(Nc3cc(NC(=O)C4CC4)ncc3C(=O)OC)c(OC)c12 [Example 149, Methyl 6-(cyclopropanecarboxamido)-4-((3-ethyl-4-methoxy-1-methyl-1H-indazol-5-yl)amino)nicotinate] | 732 | 62.8 | – | – | – | – | – | –
8 | [2H]C([2H])([2H])NC(=O)c1cnc(NC(=O)C2CC2)cc1Nc1ccc2c(c(CC)nn2C)c1OC [Example 150, 6-(Cyclopropanecarboxamido)-4-((3-ethyl-4-methoxy-1-methyl-1H-indazol-5-yl)amino)-N-(methyl-d3)nicotinamide] | 231 | 1.87 | – | – | – | – | – | –
9 | [2H]C([2H])([2H])NC(=O)c1cnc(NC(=O)C2CC2)cc1Nc1ccc2nc(C)n(CC)c2c1OC [Example 168, 6-(Cyclopropanecarboxamido)-4-((1-ethyl-7-methoxy-2-methyl-1H-benzo[d]imidazol-6-yl)amino)-N-(methyl-d3)nicotinamide] | 728 | 2.15 | – | – | – | – | – | –
10 | [2H]C([2H])([2H])NC(=O)c1cnc(NC(=O)C2CC2)cc1Nc1csc2c(Cl)cn(CC)c(=O)c12 [Example 173, 4-((7-Chloro-5-ethyl-4-oxo-4,5-dihydrothieno[3,2-c]pyridin-3-yl)amino)-6-(cyclopropanecarboxamido)-N-(methyl-d3)nicotinamide] | 86.5 | 0.817 | – | – | – | – | – | –
11 | [2H]C([2H])([2H])NC(=O)c1cnc(NC(=O)C2CC2)cc1Nc1csc2cnn(CC(F)(F)F)c(=O)c12 [Example 189, 6-(Cyclopropanecarboxamido)-N-(methyl-d3)-4-((4-oxo-5-(2,2,2-trifluoroethyl)-4,5-dihydrothieno[2,3-d]pyridazin-3-yl)amino)nicotinamide] | 247 | – | 1.15 | 1210 | 6.2 | 224 | 26.1 | 53
12 | [2H]C([2H])([2H])NC(=O)c1cnc(NC(=O)C2CC2)cc1Nc1csc2cnn(CC3CC3(F)F)c(=O)c12 (centres unmarked) [Example 191, 6-(Cyclopropanecarboxamido)-4-((5-((2,2-difluorocyclopropyl)methyl)-4-oxo-4,5-dihydrothieno[2,3-d]pyridazin-3-yl)amino)-N-(methyl-d3)nicotinamide] | 1270 | – | < 11.5 | > 120 | < 11.5 | > 120 | 13.1 | 106
13 | [2H]C([2H])([2H])NC(=O)c1cnc(NC(=O)C2CC2)cc1Nc1cn(C)c2ncn(CC(F)F)c(=O)c12 [Example 194, 6-(Cyclopropanecarboxamido)-4-((3-(2,2-difluoroethyl)-7-methyl-4-oxo-4,7-dihydro-3H-pyrrolo[2,3-d]pyrimidin-5-yl)amino)-N-(methyl-d3)nicotinamide] | 562 | 0.756 | – | – | – | – | – | –

Second part, the compound after the results:

Row | GI50 [1] [nM] | IC50 [2] [nM] | microsomal CLint at 1 μM [3, 4] [µL/min/mg] | half-life at 1 μM [3, 5] [min] | microsomal CLint at 1 μM [3, 6] [µL/min/mg] | half-life at 1 μM [3, 7] [min] | microsomal CLint at 1 μM [3, 8] [µL/min/mg] | half-life at 1 μM [3, 9] [min] | SMILES
14 | 560 | – | – | – | 40 | 34.6 | 8.8 | 158 | [2H]C([2H])([2H])NC(=O)c1cnc(NC(=O)C2CC2)cc1Nc1cn(C)c2ncn(CC(F)(F)F)c(=O)c12 [Example 195, 6-(Cyclopropanecarboxamido)-N-(methyl-d3)-4-((7-methyl-4-oxo-3-(2,2,2-trifluoroethyl)-4,7-dihydro-3H-pyrrolo[2,3-d]pyrimidin-5-yl)amino)nicotinamide]
15 | 585 | – | < 11.5 | > 120 | 26.4 | 52.5 | 53.8 | 25.8 | [2H]C([2H])([2H])NC(=O)c1cnc(Nc2ccn(C)n2)cc1Nc1cn(C)c2c(C)cn(CC)c(=O)c12 [Example 198, 4-((5-Ethyl-1,7-dimethyl-4-oxo-4,5-dihydro-1H-pyrrolo[3,2-c]pyridin-3-yl)amino)-N-(methyl-d3)-6-((1-methyl-1H-pyrazol-3-yl)amino)nicotinamide]
16 | 648 | – | – | – | < 11.5 | > 120 | – | – | [2H]C([2H])([2H])NC(=O)c1cnc(NC(=O)C2CC2)cc1Nc1cn(C)c2cnn(C(C)C(F)(F)F)c(=O)c12 (centres unmarked) [Example 200, 6-(Cyclopropanecarboxamido)-N-(methyl-d3)-4-((1-methyl-4-oxo-5-(1,1,1-trifluoropropan-2-yl)-4,5-dihydro-1H-pyrrolo[2,3-d]pyridazin-3-yl)amino)nicotinamide]
17 | 162 | – | – | – | 64.4 | 21.5 | – | – | [2H]C([2H])([2H])NC(=O)c1cnc(NC(=O)C2CC2)cc1Nc1cn(CCOC)c2ccn(C(C)C(F)(F)F)c(=O)c12 (centres unmarked) [Example 201, 6-(Cyclopropanecarboxamido)-4-((1-(2-methoxyethyl)-4-oxo-5-(1,1,1-trifluoropropan-2-yl)-4,5-dihydro-1H-pyrrolo[3,2-c]pyridin-3-yl)amino)-N-(methyl-d3)nicotinamide]
18 | 252 | 1.3 | – | – | – | – | – | – | CCN1C(=O)Cc2ccc(Nc3cc(NC(=O)C4CC4)ncc3C(=O)NC)c(OC)c21 [Example 205, 6-(Cyclopropanecarboxamido)-4-((1-ethyl-7-methoxy-2-oxoindolin-6-yl)amino)-N-methylnicotinamide]
19 | 174 | 0.71 | – | – | – | – | – | – | [2H]C([2H])([2H])NC(=O)c1cnc(NC(=O)C2CC2)cc1Nc1cn(C2CC2)c2ncn(CC)c(=O)c12 [Example 211]
20 | 244 | 0.601 | – | – | – | – | – | – | [2H]C([2H])([2H])NC(=O)c1cnc(NC(=O)C2CC2)cc1Nc1cn(CC)c2ncn(CC(F)(F)F)c(=O)c12 [Example 212, 6-(Cyclopropanecarboxamido)-4-((7-ethyl-4-oxo-3-(2,2,2-trifluoroethyl)-4,7-dihydro-3H-pyrrolo[2,3-d]pyrimidin-5-yl)amino)-N-(methyl-d3)nicotinamide]
21 | 217 | 0.557 | – | – | – | – | – | – | [2H]C([2H])([2H])NC(=O)c1cnc(NC(=O)C2CC2)cc1Nc1cn(CC(F)(F)F)c2ncn(CC)c(=O)c12 [Example 214, 6-(Cyclopropanecarboxamido)-4-((3-ethyl-4-oxo-7-(2,2,2-trifluoroethyl)-4,7-dihydro-3H-pyrrolo[2,3-d]pyrimidin-5-yl)amino)-N-(methyl-d3)nicotinamide]
